From paper PMC4891657, “Orexin 2 Receptor Antagonism is Sufficient to Promote NREM and REM Sleep from Mouse to Man” (Scientific Reports, 2016)
Values joined by “and” are separate entries in the source; they are usually repeats but may differ in a detail not shown here. Identical values can stand only once. Like-named read-outs stand apart in the source and are kept apart here.

Key:
sleep = experiment: Polysomnography in healthy male subjects; format: in vivo, human
Procedure: In the PSG study, subjects underwent 8-hour PSG recording periods beginning 1 hour after nighttime administration of MK-1064 (50, 120 and 250 mg) or placebo. […] Dose-dependence of the effects of MK-1064, while not evaluated statistically, was most pronounced with regard to LPS, LREM and REM sleep, and to a lesser extent, TST and WASO sleep (Fig. 7b).
Figure 7 MK-1064 promotes sleep in healthy subjects. MK-1064 (50, 120 and 250 mg) or placebo were administered 1 hour prior to the normal resting phase in healthy subjects (N = 20), and PSG effects were monitored during the normal resting phase.
(§1) Twenty healthy male subjects between the ages of 18 and 45 years were recruited to a double-blind, randomized, 4-period, crossover study to evaluate the effects of single doses of MK-1064. Subjects were without a history of physical or mental illnesses, had no history of sleep abnormalities, and were not regularly taking medication. Subject inclusion required a sleep score ≤6 on the Pittsburgh Sleep Quality Index at the time of screening, and qualified subjects underwent a PSG screening prior to randomization to exclude those with latent sleep disturbances. In each of the 4 treatment periods, subjects were randomized to receive single doses of MK-1064 (50, 120, or 250 mg) or matching placebo according to a balanced crossover design (see Fig. 5). Briefly, 20 subjects were randomized to 4 panels (n = 5 each). Each panel then received each of the four treatments (placebo, 50, 120, 250 mg MK-1064) in 4 different study periods where each period allocated the 4 different treatments to the 4 different subject panels. Progression through each period rotated the 4 different treatments among the subject panels such that each panel ultimately received all 4 treatments. In all 4 study periods, subjects were admitted for a pre-dose habituation night. On the following treatment night, subjects were administered a single dose of study medication in a blinded manner approximately 1 hour before their habitual bedtime. Study medication was administered following a ≥4-hour fast. Dosing in different treatment periods was separated by a washout of at least 7 days for each subject. PSG recording commenced at 1 hour post-dose and continued during undisturbed sleep for 8 hours overnight. Visual scoring of each 30-sec epoch of PSG recording to wake or one of four sleep states (S1, S2, SWS, collectively referred to as NREM, and REM) was performed according to standard and established Rechtschaffen and Kales criteria. Obtained scores were then used to calculate efficacy assessment measures including latency to persistent sleep (LPS) (min), wake after sleep onset (WASO) (min), sleep efficiency (SE) (%), and total sleep time (TST) (min). LPS is the time from lights off to the first epoch of 20 consecutive epochs of non-wake stage; WASO is the time in wake stage between the onset of persistent sleep and the time of lights on; and SE is the proportion of time between lights off and lights on that was spent in sleep. In addition to efficacy parameters, latency to REM (LREM) (min), equal to the time from lights off to the first epoch of REM, and the proportion (%) of TST spent in NREM and REM were calculated. Estimation of the effects of treatment on PSG endpoints relative to placebo, including the calculation of confidence intervals and p-values were done using a mixed-effect statistical model typical for crossover studies. Specifically, logarithm of an analyzed endpoint represented the response variable, and treatment dose, treatment period, and carryover effect were fixed-effect explanatory variables. Subject effect was the random effect with the within-subject covariance assumed to be of the unstructured type. […] SAS/STAT® Version 9.3 software (SAS Institute, Cary NC) was used in the analysis.

[1] = Safety and tolerability, PSG study; format: in vivo, human
Text: In the ascending single-dose study, 52 AEs were considered to be related to the study drug, the most common of which was somnolence/sleepiness, drowsiness, and tiredness (15 of 16 subjects dosed with MK-1064), consistent with the intended pharmacological activity. […] In the PSG study, 13 of the 20 subjects enrolled reported ≥1 clinical AE. Of 24 clinical AEs reported, 18 were considered to be related to study treatment, all of which were mild or moderate in intensity. One report of transient sleep paralysis following MK-1064 250 mg was noted, while the most common MK-1064-related AEs were headache (3 subjects), nightmares (2 subjects) and dizziness (1 subject) (Supplementary Table 2).
as §1

OX2R = target: T1, OX2R (Homo sapiens, UniProt O43614); format: in vivo, transgenic rats expressing human Hcrtr2; design: from tissue; host or cells: brain tissue lysate of male transgenic rats expressing human Hcrtr2 cDNA under the rat enolase promoter
T1 sequence (O43614 1-444): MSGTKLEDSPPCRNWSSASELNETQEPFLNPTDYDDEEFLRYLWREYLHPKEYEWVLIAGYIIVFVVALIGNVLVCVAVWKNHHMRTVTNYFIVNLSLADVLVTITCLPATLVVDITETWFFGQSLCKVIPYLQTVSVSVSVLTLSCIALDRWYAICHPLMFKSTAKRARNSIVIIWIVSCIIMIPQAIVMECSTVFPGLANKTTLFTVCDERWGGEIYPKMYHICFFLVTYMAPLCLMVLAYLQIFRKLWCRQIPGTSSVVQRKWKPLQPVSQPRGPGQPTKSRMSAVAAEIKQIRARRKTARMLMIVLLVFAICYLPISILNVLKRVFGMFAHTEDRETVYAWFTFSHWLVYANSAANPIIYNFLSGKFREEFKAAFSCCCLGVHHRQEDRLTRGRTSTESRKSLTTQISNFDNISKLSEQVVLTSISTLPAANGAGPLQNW
Text: OX2R occupancy in transgenic rats expressing human Hcrtr2 cDNA via the rat enolase promoter in radioligand-binding displacement assays have been described previously. […] Normalized curves where the maximum occupancy value was defined as 100% relative to maximal observed plasma were constructed by fitting data to a one-site binding (hyperbola) curve (GraphPad Prism® v. 6.04, San Diego, CA, USA).

[2] = Plasma exposure in dogs after oral dosing; format: in vivo, dog; details: for Cmax / Tmax / AUC(0-t): beagle, dog, plasma
[3] = healthy subjects, two highest doses (120, 250 mg)
[4] = rats, 2 hours following treatment vs vehicle

## COc1ccc(CNC(=O)c2cc(-c3cncc(Cl)c3)cnc2-c2ccccn2)nc1OC [MK-1064, 5″-chloro-N-[(5,6-dimethoxypyridin-2-yl)methyl]-2,2′:5′, 3″-terpyridine-3′-carbo xamide]
sleep; healthy subjects, 120 mg
  time spent in Stage 2: significant increase
sleep; healthy subjects, 50, 120 and 250 mg (all doses)
  LPS as fraction of placebo response: significant reductions
sleep; [3]
  WASO as fraction of placebo response: significant reductions
  reduction in LREM versus placebo: statistically significant
sleep; healthy subjects, two lower doses (50, 120 mg)
  NREM sleep: increases in NREM sleep
sleep; healthy subjects, vs placebo
  time spent in Stage 1 and SWS: not significantly different from placebo
[1]
  MK-1064-related AE dizziness: 1 subject
  MK-1064-related AE headache: 3 subjects
  MK-1064-related AE nightmares: 2 subjects
  clinical AEs reported: 24
[1]; 250 mg
  reports of transient sleep paralysis: One
[1]; 20 subjects enrolled, crossover 50, 120, 250 mg and placebo
  subjects reporting ≥1 clinical AE: 13 subjects
[1]; all mild or moderate
  clinical AEs considered to be related to study treatment: 18
OX2R; in vivo
  OX2R occupancy at which significant reductions in active wake were observed: 94% and 97%
OX2R; [4]
  OX2R occupancy at which changes in REM sleep occurred: 94%
  OX2R occupancy at which no significant reduction in active wake was observed: 89%
  OX2R occupancy at which significant SWS changes were induced: 97%
[2]; 20 mg/kg oral
  expected unbound drug levels at 1 hour (~Tmax): approximately 4.4 μM
  Cmax: 15.3 µM
  Tmax: 48 min
[2]; 1 mg/kg oral
  Cmax: 1 µM
  Tmax: 18 min
[2]; 1 mg/kg oral, read-out: AUC0–24
  AUC(0-t): 3.4 µM·h
[2]; 20 mg/kg oral, read-out: AUC0-24
  AUC(0-t): 56.5 µM·h
